Test results reported in ChEMBL document CHEMBL1150621, “Two new triterpenoids from Azadirachta indica and their insecticidal activity” (2002).
Values after ≈ are worked out from the molar mass of the structure shown.

Test system: Anopheles stephensi
Assay: Insecticidal activity against fourth instar larvae of Anopheles stephensi assessed as mortality after 24 hrs
Type: functional

Structure (SMILES)	LC50 [µg/mL]
CC(=O)O[C@@H]1[C@H](O)[C@H]2C(C)(C)C(=O)C=C[C@]2(C)[C@H]2CC[C@@]3(C)CC(=O)C=C3[C@]12C	43 (≈ 107 µM)
CC(=O)O[C@@H]1[C@H](O)[C@H]2C(C)(C)C(=O)C=C[C@]2(C)[C@H]2CC[C@]3(C)C(=CC[C@H]3C3=COCC3)[C@]12C	60 (≈ 132 µM)
